Laboratory results reported in ChEMBL document CHEMBL1136029, “Inhibition of estrone sulfatase (ES) by derivatives of 4-[(aminosulfonyl)oxy] benzoic acid” (Bioorg Med Chem Lett, 2002).

How the values were obtained:
[1] = Dissociation constant determined by calculating its overall stability; type: physicochemical
Steryl-sulfatase [2] = target: T1, Steryl-sulfatase (Homo sapiens, UniProt P08842); assay: Inhibitory activity against Estrone Sulfatase
T1 sequence (P08842 whole entry): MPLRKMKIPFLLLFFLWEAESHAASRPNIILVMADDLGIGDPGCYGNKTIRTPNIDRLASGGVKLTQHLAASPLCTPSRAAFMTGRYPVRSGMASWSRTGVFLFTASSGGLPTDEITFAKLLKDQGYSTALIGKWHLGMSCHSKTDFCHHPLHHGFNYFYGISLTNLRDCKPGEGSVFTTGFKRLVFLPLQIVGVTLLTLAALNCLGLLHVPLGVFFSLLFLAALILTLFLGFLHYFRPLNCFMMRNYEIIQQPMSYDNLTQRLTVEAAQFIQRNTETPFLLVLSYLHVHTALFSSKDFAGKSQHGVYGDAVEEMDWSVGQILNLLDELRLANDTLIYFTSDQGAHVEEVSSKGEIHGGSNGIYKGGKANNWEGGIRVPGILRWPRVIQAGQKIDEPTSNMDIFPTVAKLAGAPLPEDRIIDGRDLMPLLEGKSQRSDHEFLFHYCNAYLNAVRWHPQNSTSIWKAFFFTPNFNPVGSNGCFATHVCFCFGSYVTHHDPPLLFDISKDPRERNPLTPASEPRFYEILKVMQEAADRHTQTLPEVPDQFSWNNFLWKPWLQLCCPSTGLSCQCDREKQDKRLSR

[3] = target: T2, Steryl-sulfatase (Homo sapiens) (UniProt P08842); assay: Compound was tested for the Inhibitory activity against the Estrone Sulfatase at a concentration of 10 uM
T2 sequence (whole entry): T1 sequence (P08842 whole entry)

[4] = target: T2, Steryl-sulfatase (Homo sapiens); assay: Compound was tested for the Inhibitory activity against the Estrone Sulfatase at a concentration of 50 uM
[5] = target: T2, Steryl-sulfatase (Homo sapiens); assay: Compound was tested for the Inhibitory activity against the Estrone sulfatase at a concentration of 10 uM
[6] = target: T2, Steryl-sulfatase (Homo sapiens); assay: Compound was tested for the Inhibitory activity against the Estrone sulfatase at a concentration of 50 uM
Steryl-sulfatase [7] = target: T1, Steryl-sulfatase; assay: Inhibitory activity against Estrone sulfatase was determined

Compound	pKa [1]	IC50 (Steryl-sulfatase [2])	inhibition [3]	inhibition [4]	inhibition [5]	inhibition [6]	IC50 (Steryl-sulfatase [7])
CCCCCOC(=O)c1ccc(OS(N)(=O)=O)cc1	8.47	5.9 µM	64.4%	86.2%	–	–	–
CCCCCCCCCCOC(=O)c1ccc(OS(N)(=O)=O)cc1	–	22.4 µM	36.5%	–	–	–	–
CCOC(=O)c1ccc(OS(N)(=O)=O)cc1	8.22	31.6 µM	25.6%	63.4%	–	–	–
C[C@]12CC[C@@H]3c4ccc(OS(N)(=O)=O)cc4CCC3[C@@H]1CCC2=O (single isomer, unassigned)	–	–	68.6%	–	–	–	–
CCCOC(=O)c1ccc(OS(N)(=O)=O)cc1	8.03	13.2 µM	42.6%	76.9%	–	–	–
COC(=O)c1ccc(OS(N)(=O)=O)cc1	8.28	–	–	–	25.4%	74.7%	31.6 µM
CCCCOC(=O)c1ccc(OS(N)(=O)=O)cc1	8.07	10.5 µM	48.3%	–	–	–	–
CCCCCCCCOC(=O)c1ccc(OS(N)(=O)=O)cc1	–	5 µM	63%	80.4%	–	–	–

The remaining compounds from weak to strong by IC50 (Steryl-sulfatase [2]), led by results:

pKa [1]	IC50 (Steryl-sulfatase [2])	inhibition [3]	inhibition [4]	inhibition [5]	inhibition [6]	IC50 (Steryl-sulfatase [7])	Compound
–	4.8 µM	–	76.2%	–	–	–	CCCCCCCCCOC(=O)c1ccc(OS(N)(=O)=O)cc1
8.52	3.8 µM	72.6%	–	–	–	–	CCCCCCOC(=O)c1ccc(OS(N)(=O)=O)cc1
8.27	3.4 µM	69.5%	83.7%	–	–	–	CCCCCCCOC(=O)c1ccc(OS(N)(=O)=O)cc1
